From patent US7153873B2, “Salts of bicyclic, N-acylated imidazo-3-amines and imidazo-5-amines” (Gruenenthal GmbH, priority 2000, dated 2006)

Molecular target: T1, μ-opiate receptor (Rattus norvegicus, UniProt P33535)
T1 construct: homogenate of rat brain without cerebellum, pons and medulla oblongata of male Wistar rats; from tissue; host or cells: rat brain (without cerebellum, pons and medulla oblongata), male Wistar rats, membrane homogenate
Experiment: μ-Opiate receptor binding investigations on rat brain membrane homogenates with tritiated naloxone
Settings: 10 μM compound; rat brain membrane homogenate (male Wistar rats); 1 nmol/l tritiated naloxone as radioactive ligand; read-out: μ-affinity % inhibition 10 μM
Protocol: μ-Opiate Receptor Binding Investigations
Investigations to determine the affinity of the compounds of Formula I according to the invention for the μ-opiate receptor were carried out on brain membrane homogenates (homogenate of rat brain without cerebellum, pons and medulla oblongata of male Wistar rats).
For this purpose, the respective freshly prepared rat brain was homogenized in 50 mmol/l tris-HCl (pH 7.4) with ice cooling and was centrifuged for 10 minutes at 5,000 g and 4° C. After decanting and rejection of the supernatant, retrieval and homogenisation of the membrane sediment in 50 mmol/l tris-HCl (pH 7.4), the homogenate was then centrifuged for 20 minutes at 20,000 g and 4° C. This washing stage was repeated several times. The supernatant was then decanted and the membrane sediment homogenized in cold 50 mmol/l tris-HCl, 20% glycerol (w/v), 0.01% Bactitracin (w/v) (pH 7.4) and frozen in aliquots until testing. To test receptor binding, the aliquots were thawed and diluted 1:10 with the binding test buffer.
In the binding test, a 50 mmol/l tris-HCl, 5 mmol/l MgCl (pH 7.4) was used as buffer and 1 nmol/l tritiated naloxone as radioactive ligand.

T1 sequence (P33535 whole entry): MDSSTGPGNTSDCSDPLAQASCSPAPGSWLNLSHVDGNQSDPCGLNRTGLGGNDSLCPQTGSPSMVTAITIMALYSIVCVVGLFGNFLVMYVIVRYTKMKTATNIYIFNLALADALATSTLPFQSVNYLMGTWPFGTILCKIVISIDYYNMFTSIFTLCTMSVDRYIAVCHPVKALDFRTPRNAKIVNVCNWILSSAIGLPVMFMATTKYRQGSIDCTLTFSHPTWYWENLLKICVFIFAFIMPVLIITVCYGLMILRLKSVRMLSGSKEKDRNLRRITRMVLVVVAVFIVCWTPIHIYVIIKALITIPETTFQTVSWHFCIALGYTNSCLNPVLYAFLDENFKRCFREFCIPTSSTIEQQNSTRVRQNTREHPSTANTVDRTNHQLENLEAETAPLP

Compound	inhibition at 10 µM [%]
CC(=O)[n+]1c(-c2ccccc2)c(NC2CCCCC2)n2c3ccccc3ccc21 [Example 5, 3-acetyl-1-cyclohexylamino-2-phenyl-imidazo[1,2-a]-quinolin-3-ium chloride]	79
CC(=O)[n+]1c(C)c(NC(C)(C)C)n2cccc(OCc3ccccc3)c21 [Example 8, 1-acetyl-8-benzyloxy-3-tert-butylamino-2-methyl-imidazo[1,2-a]pyridin-1-ium chloride]	98
CC(=O)[n+]1c(-c2ccccc2)c(NC2CCCCC2)n2cccnc21 [Example 6, 1-acetyl-3-cyclohexylamino-2-phenyl-imidazo[1,2-a]-pyrimidin-1-ium chloride]	53
CC(=O)[n+]1c(-c2ccccc2)c(NC(C)(C)C)n2ccsc21 [Example 4, 7-acetyl-5-tert-butylamino-6-phenyl-imidazo[2,1-b]-thiazol-7-ium chloride]	90
CC(=O)[n+]1c(C)c(NC2CCCCC2)n2cccc(OCc3ccccc3)c21 [Example 7, 1-acetyl-8-benzyloxy-3-cyclohexylamino-2-methyl-imidazo[1,2-a]pyridin-1-ium chloride]	91
